These results are taken from patent publication US11046699B2, “Pyrazolo-pyrimidin-amino-cycloalkyl compounds and their therapeutic uses” (RAPT THERAPEUTICS, INC., priority 2018, dated 2021).

The target of the experiment is GCN2 (Homo sapiens, UniProt Q9P2K8). As to the kind of experiment: GCN2 enzymatic endpoint assay: phosphorylation of GFP-eIF2α measured by TR-FRET (Lanthascreen). It counts as biochemical. A digest of the protocol: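 Endpoint kinase reaction with 2 μM ATP and 80 nM GFP-labelled eIF2α substrate, run at room temperature for 90 min, then stopped with EDTA. Phospho-substrate detected by terbium-antibody TR-FRET, activity taken as the 520/495 nm emission ratio.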
Sequence of GCN2 (Q9P2K8 whole entry): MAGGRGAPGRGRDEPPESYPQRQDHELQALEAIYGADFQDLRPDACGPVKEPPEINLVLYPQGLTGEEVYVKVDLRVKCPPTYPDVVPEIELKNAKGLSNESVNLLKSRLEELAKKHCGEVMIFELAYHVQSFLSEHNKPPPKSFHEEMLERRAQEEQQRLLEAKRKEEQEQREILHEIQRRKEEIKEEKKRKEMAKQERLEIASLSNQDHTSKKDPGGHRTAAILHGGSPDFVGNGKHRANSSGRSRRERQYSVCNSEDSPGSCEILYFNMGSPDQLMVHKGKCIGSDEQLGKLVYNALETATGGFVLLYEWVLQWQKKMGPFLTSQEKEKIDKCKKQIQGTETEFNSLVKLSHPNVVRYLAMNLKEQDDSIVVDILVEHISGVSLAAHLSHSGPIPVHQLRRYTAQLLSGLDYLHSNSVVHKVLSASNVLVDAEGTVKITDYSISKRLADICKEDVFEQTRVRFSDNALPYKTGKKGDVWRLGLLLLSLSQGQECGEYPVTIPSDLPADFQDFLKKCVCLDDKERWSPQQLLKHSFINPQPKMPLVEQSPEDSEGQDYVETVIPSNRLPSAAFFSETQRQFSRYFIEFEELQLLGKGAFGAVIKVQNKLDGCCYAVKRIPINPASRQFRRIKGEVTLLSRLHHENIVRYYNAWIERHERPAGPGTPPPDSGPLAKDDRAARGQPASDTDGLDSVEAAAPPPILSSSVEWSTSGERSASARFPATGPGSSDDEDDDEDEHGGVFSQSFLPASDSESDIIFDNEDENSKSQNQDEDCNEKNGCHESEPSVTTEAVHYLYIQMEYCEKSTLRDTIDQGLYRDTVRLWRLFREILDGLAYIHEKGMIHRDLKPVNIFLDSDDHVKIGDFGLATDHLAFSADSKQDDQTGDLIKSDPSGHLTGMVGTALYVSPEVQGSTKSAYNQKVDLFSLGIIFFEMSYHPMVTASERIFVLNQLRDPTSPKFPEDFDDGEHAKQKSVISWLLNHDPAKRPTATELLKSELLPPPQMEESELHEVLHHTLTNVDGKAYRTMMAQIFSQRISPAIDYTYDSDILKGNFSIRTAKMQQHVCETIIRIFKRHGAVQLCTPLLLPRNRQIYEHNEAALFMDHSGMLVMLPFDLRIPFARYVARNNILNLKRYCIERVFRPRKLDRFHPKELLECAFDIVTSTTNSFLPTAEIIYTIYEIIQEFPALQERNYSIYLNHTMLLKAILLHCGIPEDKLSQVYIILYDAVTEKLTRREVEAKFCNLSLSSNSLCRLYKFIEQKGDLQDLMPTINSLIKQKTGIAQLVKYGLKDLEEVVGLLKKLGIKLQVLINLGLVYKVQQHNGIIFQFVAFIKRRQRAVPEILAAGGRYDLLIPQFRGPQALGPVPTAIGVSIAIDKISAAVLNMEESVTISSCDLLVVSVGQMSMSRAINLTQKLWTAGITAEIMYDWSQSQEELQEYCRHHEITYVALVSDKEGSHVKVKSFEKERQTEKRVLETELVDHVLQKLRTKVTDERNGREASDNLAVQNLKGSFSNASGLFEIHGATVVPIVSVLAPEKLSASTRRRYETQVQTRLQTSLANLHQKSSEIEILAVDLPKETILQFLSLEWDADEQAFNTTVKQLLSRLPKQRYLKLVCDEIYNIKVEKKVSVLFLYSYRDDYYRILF
For orientation: TR-FRET usually uses a lanthanide donor and a delayed reading to cut background.

The mark [1] stands for this setting: tested as described in Example 77, compound and/or hydrochloride, dihydrochloride or trifluoroacetic acid salt, read-out: IC 50 Activity.
Setting [2] is: GCN2 biochemical IC50, 4 nM GCN2, 2 μM ATP, 80 nM GFP-eIF2α, 90 min RT, read-out: GCN2 activity.

Where a name gives a salt, the structure may show the parent alone. Read-outs that look alike come from different tables or passages of the source.

Consider `CNC(=O)[C@]1(C)CC[C@@H](Nc2ncc3c(Br)nn(-c4ccc5c(=O)n(C)c(=O)n(C)c5c4)c3n2)C1` [(1R,3R)-3-[[3-bromo-1-(1,3-dimethyl-2,4-dioxo-quinazolin-7-yl)pyrazolo [3,4-d]pyrimidin-6-yl]amino]-N,1-dimethyl-cyclopentanecarboxamide], for which, under setting [1], the IC50 was under 25 nM.

`CNC(=O)[C@@H]1CC[C@@H](Nc2ncc3c(Br)nn(-c4ccc(-c5cnn(CCOC)c5)cc4)c3n2)C1` [(1R,3R)-3-[[3-bromo-1-[4-[1-(2-methoxy-ethyl)pyrazol-4-yl]phenyl]pyrazolo[3,4-d]pyrimidin-6-yl]amino]-N-methyl-cyclopentanecarboxamide]: the IC50 under setting [1] was in the range of 25 to 200 nM.

Regarding `CNC(=O)[C@H]1C[C@H](Nc2ncc3c(Br)nn(-c4cc(F)c5ncccc5c4)c3n2)C1`, the IC50 under setting [1] was 200 to 500 nM.

Consider `CNC(=O)[C@]1(O)CC[C@@H](Nc2ncc3c(Br)nn(-c4cc(F)c5ncccc5c4)c3n2)C1` [(1S,3R)-3-[[3-bromo-1-(8-fluoro-6-quinolyl)pyrazolo[3,4-d]pyrimidin-6-yl]amino]-1-hydroxy-N-methyl-cyclopentanecarboxamide], for which the IC50 under setting [1] lay within 25 to 200 nM.

Regarding `CC1(C(=O)N2CCNCC2)CC[C@@H](Nc2ncc3c(Br)nn(-c4cc(F)c5ncccc5c4)c3n2)C1` (stereo partly drawn) [[(3R)-3-[[3-bromo-1-(8-fluoro-6-quinolyl)pyrazolo[3,4-d]pyrimidin-6-yl]amino]-1-methyl-cyclopentyl]-piperazin-1-yl-methanone], the IC50 under setting [1] was under 25 nM.

For the compound `CNC(=O)[C@]1(C)CC[C@@H](Nc2ncc3c(Br)nn(-c4ccc(-c5nnc(C)o5)c(CO)c4)c3n2)C1` [Example 58, (1R,3R)-3-((3-bromo-1-(3-(hydroxymethyl)-4-(5-methyl-1,3,4-oxadiazol-2-yl)phenyl)-1H-pyrazolo[3,4-d]pyrimidin-6-yl)amino)-N,1-dimethylcyclopentane-1-carboxamide], the IC50 under setting [2] was in the range of 25 to 200 nM.

In the case of `COCCO[C@@H]1CCN(C(=O)[C@@H]2CC[C@@H](Nc3ncc4c(Br)nn(-c5ccc6ncccc6c5)c4n3)C2)C1` [((1R,3R)-3-((3-bromo-1-(quinolin-6-yl)-1H-pyrazolo[3,4-d]pyrimidin-6-yl)amino)cyclopentyl)((R)-3-(2-methoxyethoxy)pyrrolidin-1-yl)methanone], the IC50 under setting [1] is 25 to 200 nM.

Turning to `C[C@@H]1CN(C(=O)[C@@H]2CC[C@@H](Nc3ncc4c(Br)nn(-c5ccc6ncccc6c5)c4n3)C2)C[C@H](C)O1` [((1R,3R)-3-((3-bromo-1-(quinolin-6-yl)-1H-pyrazolo[3,4-d]pyrimidin-6-yl)amino)cyclopentyl)((2S,6R)-2,6-dimethylmorpholino) methanone], the IC50 under setting [1] was in the range of 200 to 500 nM.

Regarding `CNC(=O)[C@]1(C)CC[C@@H](Nc2ncc3c(Br)nn(-c4ccc(-c5ncco5)c(NC(=O)[C@H]5CCNC5)c4)c3n2)C1` [(3S)-N-[5-[3-bromo-6-[[(1R,3R)-3-methyl-3-(methylcarbamoyl)cyclopentyl]amino]pyrazolo[3,4-d]pyrimidin-1-yl]-2-oxazol-2-yl-phenyl]pyrrolidine-3-carboxamide], the IC50 under setting [1] is under 25 nM.

For the compound `CNC(=O)[C@]1(C)CC[C@@H](Nc2ncc3c(I)nn(-c4cc(F)c5ncccc5c4)c3n2)C1` [Example 31, (1R,3R)-3-((1-(8-fluoroquinolin-6-yl)-3-iodo-1H-pyrazolo[3,4-d]pyrimidin-6-yl)amino)-N,1-dimethylcyclopentane-1-carboxamide; 2,2,2-trifluoroacetic acid], under setting [2], the IC50 was under 25 nM.

Regarding `CC1(C(=O)NC2CCOCC2)CC(Nc2ncc3c(Br)nn(-c4ccc5ncccc5c4)c3n2)C1` (centres unmarked), under setting [1], the IC50 was in the range of 25 to 200 nM.

As for `CNC(=O)[C@@H]1CC[C@@H](Nc2ncc3c(Br)nn(-c4ccc5nc(OC)ccc5c4)c3n2)C1` [(1R,3R)-3-[[3-bromo-1-(2-methoxy-6-quinolyl)pyrazolo[3,4-d]pyrimidin-6-yl]amino]-N-methyl-cyclopentanecarboxamide], under setting [1], the IC50 was in the range of 25 to 200 nM.

As for `CNC(=O)[C@]1(C)CC[C@@H](Nc2ncc3c(Br)nn(-c4ccc(N5CCOCC5)c(C#N)c4)c3n2)C1` [Example 59, (1R,3R)-3-((3-bromo-1-(3-cyano-4-morpholinophenyl)-1H-pyrazolo[3,4-d]pyrimidin-6-yl)amino)-N,1-dimethylcyclopentane-1-carboxamide hydrochloride], the IC50 under setting [2] was in the range of 25 to 200 nM.

As to `Cc1nnc(-c2ccc(-n3nc(Br)c4cnc(N[C@@H]5CC[C@@](C)(C(=O)N6CCNCC6)C5)nc43)cc2CCC#N)s1`, the IC50 under setting [1] lay within 25 to 200 nM.

As for `CNC(=O)[C@]1(C)CC[C@@H](Nc2ncc3c(Br)nn(-c4cc(Cl)cc(CCO)c4)c3n2)C1` [(1R,3R)-3-[[3-bromo-1-[3-chloro-5-(2-hydroxyethyl)phenyl]pyrazolo [3,4-d]pyrimidin-6-yl]amino]-N,1-dimethyl-cyclopentanecarboxamide], the IC50 under setting [1] was under 25 nM.

With `CNC(=O)C1(CC#N)CC[C@@H](Nc2ncc3c(Br)nn(-c4ccc(-c5nnc(C)s5)c(CCC#N)c4)c3n2)C1` (some centres unmarked), the IC50 under setting [1] lay in the range of 25 to 200 nM.

As to `Cc1cn2c(n1)CN(C(=O)[C@@H]1CC[C@@H](Nc3ncc4c(Br)nn(-c5cc(F)c6ncccc6c5)c4n3)C1)CC2` [[(1R,3R)-3-[[3-bromo-1-(8-fluoro-6-quinolyl)pyrazolo[3,4-d]pyrimidin-6-yl]amino]cyclo-pentyl]-(2-methyl-6,8-dihydro-5H-imidazo [1,2-a]pyrazin-7-yl)methanone], the IC50 under setting [1] was in the range of 25 to 200 nM.

`CNC(=O)[C@]1(C)CC[C@@H](Nc2ncc3c(Br)nn(-c4ccc(-c5nnc(C)s5)c(CCN)c4)c3n2)C1` [(1R,3R)-3-[[1-[3-(2-aminoethyl)-4-(5-methyl-1,3,4-thiadiazol-2-yl)phenyl]-3-bromo-pyrazolo[3,4-d]pyrimidin-6-yl]amino]-N,1-dimethyl-cyclopentane-carboxamide]: the IC50 under setting [1] was 25 to 200 nM.

Consider `CNC(=O)[C@]1(C)CC[C@@H](Nc2ncc3c(Br)nn(-c4ccc(-c5nnc(C)s5)c(CCNCC(F)(F)F)c4)c3n2)C1` [(1R,3R)-3-[[3-bromo-1-[4-(5-methyl-1,3,4-thiadiazol-2-yl)-3-[2-(2,2,2-trifluoroethylamino)ethyl]phenyl]pyrazolo[3,4-d]pyrimidin-6-yl]amino]-N,1-dimethyl-cyclopentanecarboxamide], for which the IC50 under setting [1] fell in the range of 25 to 200 nM.

As to `CNC(=O)[C@]1(C)CC[C@@H](Nc2ncc3c(Br)nn(-c4cc(CCCOC)c5c(c4)CCC(=O)N5C)c3n2)C1` [(1R,3R)-3-[[3-bromo-1-[8-(3-methoxy-propyl)-1-methyl-2-oxo-3,4-dihydro-quinolin-6-yl]pyrazolo[3,4-d]pyrimidin-6-yl]amino]-N,1-dimethyl-cyclopentane-carboxamide; 2,2,2-trifluoroacetic acid], the IC50 under setting [1] was 25 to 200 nM.

With `Cc1nnc(-c2ccc(-n3nc(Br)c4cnc(NC5CC(P(C)(C)=O)C5)nc43)cc2CCC#N)s1` (centres unmarked) [3-[5-[3-bromo-6-[(3-dimethylphosphoryl-cyclobutyl)amino]pyrazolo[3,4-d]pyrimidin-1-yl]-2-(5-methyl-1,3,4-thiadiazol-2-yl)phenyl]propanenitrile], the IC50 under setting [1] lay within 25 to 200 nM.

Regarding `CNC(=O)[C@]1(C)CC[C@@H](Nc2ncc3c(Br)nn(-c4ccc5ncn(CCCN)c(=O)c5c4)c3n2)C1`, under setting [1], the IC50 lay within 25 to 200 nM.

Turning to `CNC(=O)[C@]1(C)CCC(Nc2ncc3c(Br)nn(-c4ccc(C(N)=O)c(Cl)c4)c3n2)C1` (stereo partly drawn) [4-[3-bromo-6-[[(3R)-3-methyl-3-(methylcarbamoyl)cyclopentyl]amino]pyrazolo[3,4-d]pyrimidin-1-yl]-2-chloro-benzamide], under setting [1], the IC50 was in the range of 25 to 200 nM.
